Measurements from the supplement of paper PMC10883282.

Key:
Experiment in all cases: relative viability vs DMSO control (72 h) (fraction); higher = more viable cells
SK-LMS-1 = tested on: SK-LMS-1
Outline: (§1)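 Sarcoma cell lines were grown in 384-well plates seeded toward 80–90% confluence and exposed 24 h later to serially diluted compound. After 72 h at 37 °C and 5% CO2, with 0.1% DMSO vehicle and a 5 µM positive control on the plates, ATPLite was read. Relative viability, given as percent growth averaged over up to triplicate wells, was rescaled so that 1 is full and 0 is none.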

SW1353 = tested on: SW1353
Outline: as §1

SW684 = tested on: SW684
Outline: as §1

SW872 = tested on: SW872
Outline: as §1

SW982 = tested on: SW982
Outline: as §1

SYO-1 = tested on: SYO-1
Outline: as §1

C#Cc1cccc(Nc2ncnc3cc(OCCOC)c(OCCOC)cc23)c1 [Erlotinib]
relative viability
Details | SK-LMS-1 | SW684 | SW872 | SW982 | SW1353 | SYO-1
0.00017 µM | 1.06 | 1.16 | 1.11 | 1.06 | 1.02 | 0.999
0.00051 µM | 1.06 | 1.15 | 1.12 | 1.06 | 1.03 | 0.998
0.00152 µM | 1.09 | 1.14 | 1.14 | 1.08 | 1.043 | 0.978
0.00457 µM | 1.07 | 1.23 | 1.11 | 1.08 | 1.02 | 0.979
0.01372 µM | 1.09 | 1.23 | 1.07 | 1.06 | 1.04 | 0.982
0.04115 µM | 1.12 | 1.19 | 1.1 | 1.08 | 1.01 | 0.9892
0.1235 µM | 1.07 | 1.17 | 1.11 | 1.07 | 0.955 | 0.967
0.3704 µM | 1.11 | 1.19 | 1.06 | 1.07 | 0.928 | 0.991
1.111 µM | 1.07 | 1.2 | 1.04 | 0.9728 | 0.889 | 0.962
3.333 µM | 0.941 | 1.18 | 0.822 | 0.689 | 0.812 | 0.92
10 µM | 0.698 | 1.05 | 0.638 | 0.466 | 0.695 | 0.724
